Assay [1] concerns PSN1. Briefly: Cytotoxicity against human PSN1 cells after 96 hrs by ATP-lite luminescence assay. The format is functional, cell-based. To be noted: PSN1, 96 h.
Assay [2] addresses T1, Tyrosine-protein kinase receptor UFO (Homo sapiens, UniProt P30530).
T1 sequence (P30530 whole entry): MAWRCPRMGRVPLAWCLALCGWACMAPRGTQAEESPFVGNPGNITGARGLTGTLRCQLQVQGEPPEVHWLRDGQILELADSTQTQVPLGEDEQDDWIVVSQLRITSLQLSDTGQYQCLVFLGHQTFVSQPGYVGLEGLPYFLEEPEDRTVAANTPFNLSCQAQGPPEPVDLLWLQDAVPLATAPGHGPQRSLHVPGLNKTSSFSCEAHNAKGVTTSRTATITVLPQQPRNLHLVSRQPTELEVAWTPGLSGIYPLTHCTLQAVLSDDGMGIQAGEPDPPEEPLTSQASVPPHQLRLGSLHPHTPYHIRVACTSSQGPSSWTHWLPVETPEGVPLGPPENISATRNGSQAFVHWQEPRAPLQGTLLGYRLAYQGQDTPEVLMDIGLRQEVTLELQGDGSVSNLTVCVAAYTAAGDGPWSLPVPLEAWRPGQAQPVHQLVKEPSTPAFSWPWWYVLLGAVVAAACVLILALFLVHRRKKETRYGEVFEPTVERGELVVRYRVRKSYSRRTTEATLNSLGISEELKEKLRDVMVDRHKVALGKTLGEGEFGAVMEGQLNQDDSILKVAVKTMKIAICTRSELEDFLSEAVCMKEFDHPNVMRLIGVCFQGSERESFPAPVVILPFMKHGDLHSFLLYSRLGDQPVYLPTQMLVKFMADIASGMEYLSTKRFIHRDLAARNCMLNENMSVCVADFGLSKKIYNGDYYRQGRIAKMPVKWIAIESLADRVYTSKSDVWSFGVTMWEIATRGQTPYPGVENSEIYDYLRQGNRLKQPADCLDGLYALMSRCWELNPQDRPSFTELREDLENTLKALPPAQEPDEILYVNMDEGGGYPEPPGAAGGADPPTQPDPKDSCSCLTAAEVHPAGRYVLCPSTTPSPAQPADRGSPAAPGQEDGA
Description: Inhibition of human recombinant His-tagged AXL kinase using fluorescein-labelled poly-GT as substrate after 60 mins by TR-FRET analysis

The target in assay [3] is T2, Tyrosine-protein kinase Mer (Homo sapiens, UniProt Q12866).
T2 sequence (Q12866 whole entry): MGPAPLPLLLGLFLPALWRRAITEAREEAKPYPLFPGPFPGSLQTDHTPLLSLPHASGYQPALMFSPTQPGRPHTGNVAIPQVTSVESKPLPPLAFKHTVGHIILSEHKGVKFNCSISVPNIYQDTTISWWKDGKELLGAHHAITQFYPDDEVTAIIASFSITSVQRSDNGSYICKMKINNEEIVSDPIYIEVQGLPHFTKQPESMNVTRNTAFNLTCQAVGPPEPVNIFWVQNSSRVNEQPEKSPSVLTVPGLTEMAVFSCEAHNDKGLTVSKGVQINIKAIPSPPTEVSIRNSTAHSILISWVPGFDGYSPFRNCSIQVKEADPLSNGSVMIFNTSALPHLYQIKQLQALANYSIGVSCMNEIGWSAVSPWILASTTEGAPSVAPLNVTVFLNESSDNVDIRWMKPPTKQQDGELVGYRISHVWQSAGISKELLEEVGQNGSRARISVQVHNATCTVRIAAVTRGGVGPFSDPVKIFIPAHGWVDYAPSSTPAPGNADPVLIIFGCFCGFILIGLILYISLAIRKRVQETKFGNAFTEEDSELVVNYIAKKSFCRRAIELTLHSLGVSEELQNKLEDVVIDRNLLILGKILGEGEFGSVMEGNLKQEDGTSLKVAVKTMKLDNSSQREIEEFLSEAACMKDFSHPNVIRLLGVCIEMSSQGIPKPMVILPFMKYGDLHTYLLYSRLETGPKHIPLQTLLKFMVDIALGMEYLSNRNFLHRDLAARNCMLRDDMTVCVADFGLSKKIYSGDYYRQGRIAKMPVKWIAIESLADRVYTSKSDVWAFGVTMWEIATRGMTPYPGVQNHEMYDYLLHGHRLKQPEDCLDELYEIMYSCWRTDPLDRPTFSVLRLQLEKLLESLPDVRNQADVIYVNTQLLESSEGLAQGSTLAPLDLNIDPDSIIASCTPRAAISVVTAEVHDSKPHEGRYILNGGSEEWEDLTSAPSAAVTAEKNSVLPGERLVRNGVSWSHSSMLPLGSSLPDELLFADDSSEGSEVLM
As to the kind of experiment: Inhibition of Mer kinase.

Assay [4] deals with T3, Aurora kinase A (Homo sapiens, UniProt O14965).
T3 sequence (O14965 whole entry): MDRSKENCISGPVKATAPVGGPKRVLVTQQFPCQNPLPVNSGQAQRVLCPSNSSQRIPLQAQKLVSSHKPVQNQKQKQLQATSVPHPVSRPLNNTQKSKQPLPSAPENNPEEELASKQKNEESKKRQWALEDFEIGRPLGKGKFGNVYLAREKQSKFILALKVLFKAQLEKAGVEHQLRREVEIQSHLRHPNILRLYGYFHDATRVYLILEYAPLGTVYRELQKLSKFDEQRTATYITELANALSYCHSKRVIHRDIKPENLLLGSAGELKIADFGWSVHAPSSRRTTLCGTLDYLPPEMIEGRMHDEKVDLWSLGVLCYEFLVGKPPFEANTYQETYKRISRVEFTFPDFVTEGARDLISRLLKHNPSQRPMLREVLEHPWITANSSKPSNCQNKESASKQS
Briefly: Inhibition of Aurora A.

Assay [5] concerns the target Aurora kinase B (Homo sapiens, UniProt Q96GD4). Briefly: Inhibition of Aurora B.

A value given as a limit tells only on which side of the number the result lay.

Sequence of Aurora kinase B (Q96GD4 whole entry): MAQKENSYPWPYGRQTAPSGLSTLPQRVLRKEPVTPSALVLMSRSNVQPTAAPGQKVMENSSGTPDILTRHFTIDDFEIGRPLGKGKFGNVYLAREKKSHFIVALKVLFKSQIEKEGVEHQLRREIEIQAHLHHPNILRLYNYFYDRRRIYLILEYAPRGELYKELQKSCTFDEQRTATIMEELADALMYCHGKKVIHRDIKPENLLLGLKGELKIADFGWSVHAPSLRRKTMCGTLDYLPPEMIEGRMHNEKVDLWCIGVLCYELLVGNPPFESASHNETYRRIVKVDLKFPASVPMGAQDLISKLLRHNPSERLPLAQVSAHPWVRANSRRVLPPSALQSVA

On to `CN1CCN(Cc2ccc(Nc3ncc(Cl)c(Nc4ccccc4C(=O)N(C)C)n3)cc2)CC1`, for which the IC50 (usually the concentration that inhibits the measured activity by half) in assay [1] amounted to 70 nM.

In turn, `CN1CCN(Cc2ccc(Nc3ncc(C(F)(F)F)c(Nc4ccccc4C(=O)N(C)C)n3)cc2)CC1` gave an IC50 in assay [2] greater than 10000 nM. On the same count and under the same terms, with `Cc1cnc(Nc2ccc(N3CCN(C)CC3)c(F)c2)nc1-c1ccc(F)c(Cl)c1` the figure was 2800 nM. Take `CN1CCN(Cc2ccc(Nc3ncc(Cl)c(-c4ccc(F)cc4S(=O)(=O)N4CCCC4)n3)cc2)CC1`: the IC50 was found to be 192 nM in assay [1] and 91 nM in assay [2]. The molecule `CN1CCN(Cc2ccc(Nc3ncc(Cl)c(Nc4ccccc4C(=O)NC4CC4)n3)cc2)CC1` displayed an IC50 in assay [1] of 64 nM.

In the case of `CN1CCN(c2ccc(Nc3ncc(Cl)c(Nc4ccccc4S(=O)(=O)N(C)C)n3)cc2)CC1`, the IC50 in assay [2] was 1730 nM. On to `CN1CCN(Cc2ccc(Nc3ncc(Cl)c(-c4ccc(F)cc4S(=O)(=O)N(C)C)n3)cc2)CC1`, for which inhibition in assay [2] was half-maximal at 82 nM (IC50). Turning to `CN1CCN(Cc2ccc(Nc3ncc(C4CC4)c(-c4ccc(F)c(Cl)c4)n3)cc2)CC1`, half-maximal inhibition in assay [2] (IC50) was put at 3400 nM. Regarding `CN1CCN(Cc2ccc(Nc3ncc(Cl)c(Nc4ccccc4C(=O)N4CCCC4)n3)cc2)CC1`, inhibition in assay [1] was half-maximal at 21 nM (IC50). For the molecule `CN1CCN(Cc2ccc(Nc3ncc(Cl)c(Nc4ccccc4S(=O)(=O)N4CCCC4)n3)cc2)CC1`, the IC50 stood at 2 nM in assay [1] and 19 nM in assay [2]. For the molecule `CN1CCN(Cc2ccc(Nc3ncc(Cl)c(Nc4ccc(F)cc4S(=O)(=O)N4CCCC4)n3)cc2)CC1`, the IC50 in assay [1] was found to be 9 nM.

In assay [3], `CC(C)n1cnc2c(Nc3cccc(Cl)c3)nc(NCCO)nc21` gave an IC50 of 11300 nM. In turn, `Cc1cnc(Nc2ccc(OCCN3CCCCC3)cc2)nc1-c1ccc(F)c(Cl)c1` had an IC50 in assay [2] of 1630 nM. In the case of `CN1CCN(Cc2ccc(Nc3ncc(Cl)c(Nc4ccccc4S(=O)(=O)N(C)C)n3)cc2)CC1` [DUBERMATINIB], the IC50 in assay [4] worked out at 3 nM; in assay [5], 12.4 nM.

`Cc1cnc(Nc2ccc(N3CCN(C)CC3)c(F)c2)nc1-c1ccc(F)cc1` gave an IC50 in assay [2] of 6100 nM.
